Measured values: patent US6455587B1 (priority 2000, dated 2002)

What follows are compounds tested against T1, recombinant HIV-1 protease (Human immunodeficiency virus type 1 group M subtype B, UniProt P04585) (assay: Enzymatic fluorometric (FRET) assay for determining the inhibition constant (Ki) against HIV protease). Details: Ki (nM).
T1 construct: recombinant HIV-1 protease (final concentration 2.18 nM) purchased from Bachem Bioscience; purchased Bachem Bioscience
Type: biochemical
Text: An Enzymatic assay for determining the inhibition constant (Ki) of synthetic compounds targeting the HIV protease may be carried out as follows: This is a fluorometric assay based on the cleavage by protease of a substrate carrying a donor group (EDANS) and an acceptor group (DABCYL) on each side of the cleavage site, interacting together through fluorescence resonance energy transfer (FRET). Cleavage of the substrate by protease stops energy exchange between the two groups, resulting in a time-dependent increase in fluorescence intensity that is linearly related to the extent of substrate hydrolysis.
The enzymatic assay is done at 31° C. in white 96-well fluorescence microplates, in a total volume of 200 μL per well. The apparatus used for analysis is a FL600 fluorescence microplate reader (Biotek Instruments). […] Excitation of the fluorophore is done at 340 nm and emission at 485 nm is recorded continuously during the reaction, allowing determination of the enzyme's initial velocity (v0). At the end of the 4 min incubation, the potential inhibitor at a defined concentration in a volume of 4 μL is added to the reaction, and fluorescence readings are taken for another 4 min, allowing determination of enzyme velocity (vi) in the presence of the inhibitory compound. Several concentrations of the putative inhibitors are tested in the assay. After calculation of v0 and vi, the inhibition constant (Ki) of the compound is determined using the equation of Henderson: [formula]
and [I]=inhibitor concentration, [S]=substrate concentration,
Km=Michaelis-Menten constant, Kiapp=apparent Ki
Graphs are traced and the Ki determined using GraphPad Prism software v. 3.0.

Compound	Ki [nM]
Cc1ccc(S(=O)(=O)N(CC2CC2)[C@@H](CCCCNC(=O)OCC2c3ccccc3-c3ccccc32)C(=O)O)cc1 [Compound 43, Nα-Cyclopropylmethyl-Nα-(4-methylbenzenesulfonyl)-Nε-(9-fluorenylmethoxycarbonyl)-L-lysine]	3.9
Cc1ccc(S(=O)(=O)N(CC(C)C)[C@@H](CCCCNC(=O)OCC2c3ccccc3-c3ccccc32)C(=O)O)cc1 [Compound 67, Nα-Isobutyl-Nα-(4-methylbenzenesulfonyl)-Nε-(9-fluorenylmethoxycarbonyl)-L-lysine]	4.3
CC(C)CN(C(CCCCNC(=O)OCc1ccccc1)C(=O)O)S(=O)(=O)c1ccc(Br)cc1 (stereo not shown) [Compound 67]	> 100
O=C(NCCCC[C@H](NC(=O)OCC1c2ccccc2-c2ccccc21)C(=O)O)OCC1c2ccccc2-c2ccccc21 [Compound 71, Nα,Nε-di-(9-Fluorenylmethoxycarbonyl)-L-lysine]	44800

Same assay, conditions: fluorometric FRET assay, recombinant HIV-1 protease, pH 4.7, 31° C.; read-out: Ki

Compound	Ki [nM]
O=C(N[C@@H](CCCCNS(=O)(=O)c1ccc(Br)cc1)C(=O)O)C1c2ccccc2-c2ccccc21 [Compound 38, Nα-(9-Fluorenecarbonyl)-Nε-(4-bromobenzenesulfonyl)-L-lysine]	4700
Cc1ccc(S(=O)(=O)N(Cc2ccccc2)[C@@H](CCCCNC(=O)OCC2c3ccccc3-c3ccccc32)C(=O)O)cc1 [Compound 40, Nα-Benzyl-Nα-(4-methylbenzenesulfonyl)-Nε-(9-fluorenylmethoxycarbonyl)-L-lysine]	19.6
CC(C)CN(CCC[C@H](NC(=O)OCC1c2ccccc2-c2ccccc21)C(=O)O)S(=O)(=O)c1ccc(Br)cc1 [Compound 41, Nα-(9-Fluorenylmethoxycarbonyl)-Nδ-isobutyl-Nδ-(4-bromobenzenesulfonyl)-L-ornithine]	> 50000
Cc1cc(C)c(S(=O)(=O)N(CC(C)C)[C@@H](CCCCNC(=O)OCC2c3ccccc3-c3ccccc32)C(=O)O)c(C)c1 [Compound 42, Nα-Isobutyl-Nα-(2,4,6-trimethylbenzenesulfonyl)-Nε-(9-fluorenylmethoxycarbonyl)-L-lysine]	> 100
CC(C)CN([C@@H](CCCCNC(=O)OCC1c2ccccc2-c2ccccc21)C(=O)O)S(=O)(=O)c1ccc(N)cc1 [Compound 44, Nα-(4-Aminobenzenesulfonyl)-Nα-isobutyl-Nε-(9-fluorenylmethoxycarbonyl)-L-lysine]	2.1
CC(C)CN(C(=O)c1ccccc1)[C@@H](CCCCNC(=O)OCC1c2ccccc2-c2ccccc21)C(=O)O [Compound 46, Nα-Isobutyl-Nα-benzoyl-Nε-(9-fluorenylmethoxycarbonyl)-L-lysine]	> 100
O=C(N[C@@H](CCCCNS(=O)(=O)c1ccccc1)C(=O)O)OCC1c2ccccc2-c2ccccc21 [Compound 49, Nε-Benzenesulfonyl-Nα-(9-fluorenylmethoxycarbonyl)-L-lysine]	8900
Nc1ccc(S(=O)(=O)NCCCC[C@H](NC(=O)OCC2c3ccccc3-c3ccccc32)C(=O)O)cc1 [Compound 52, Nε-(4-Aminobenzenesulfonyl)-Nα-(9-fluorenylmethoxycarbonyl)-L-lysine]	6800
O=C(N[C@@H](CCCCNS(=O)(=O)c1ccc(Cl)cc1)C(=O)O)OCC1c2ccccc2-c2ccccc21 [Compound 53, Nε-(4-Chlorobenzenesulfonyl)-Nα-(9-fluorenylmethoxycarbonyl)-L-lysine]	4800
O=C(N[C@@H](CCCCNS(=O)(=O)c1cc(Cl)ccc1Cl)C(=O)O)OCC1c2ccccc2-c2ccccc21 [Compound 54, Nε-(2,5-Dichlorobenzenesulfonyl)-Nα-(9-fluorenylmethoxycarbonyl)-L-lysine]	> 6250
O=C(O)[C@H](CCCNS(=O)(=O)c1ccc(Br)cc1)NS(=O)(=O)c1ccc(Br)cc1 [Compound 57, Nα,Nδ-di-(4-Bromobenzenesulfonyl)-L-ornithine]	42400
O=C(O)[C@H](CCCN(Cc1ccc(F)cc1)S(=O)(=O)c1ccc(Br)cc1)NS(=O)(=O)c1ccc(Br)cc1 [Compound 59, Nα,Nδ-di-(4-Bromobenzenesulfonyl)-Nδ-(4-fluorobenzyl)-L-ornithine]	> 34900
O=C(O)[C@H](CCCCN(Cc1ccc(F)cc1)S(=O)(=O)c1ccc(Br)cc1)NS(=O)(=O)c1ccc(Br)cc1 [Compound 60, Nα,Nε-di-(4-bromobenzenesulfonyl)-Nε-(4-fluorobenzyl)-L-lysine]	> 50000
O=C(N[C@@H](CCCNS(=O)(=O)c1ccc([N+](=O)[O-])cc1)C(=O)O)OCC1c2ccccc2-c2ccccc21 [Compound 62, Nδ-(4-Nitrobenzenesulfonyl)-Nα-(9-fluorenylmethoxycarbonyl)-L-ornithine]	26200
O=C(N[C@@H](CCCCNS(=O)(=O)c1ccc(I)cc1)C(=O)O)OCC1c2ccccc2-c2ccccc21 [Compound 64, Nε-(4-Iodobenzenesulfonyl)-Nα-(9-fluorenylmethoxycarbonyl)-L-lysine]	19200
O=C(N[C@@H](CCCCNS(=O)(=O)c1ccc(Br)cc1)C(=O)O)c1ccccc1 [Compound 65, Nα-Benzoyl-Nε-(4-bromobenzenesulfonyl)-L-lysine]	> 50000
O=C(NCCCC[C@H](NS(=O)(=O)c1ccc(Br)cc1)C(=O)O)OCC1c2ccccc2-c2ccccc21 [Compound 66, Nα-(4-Bromobenzenesulfonyl)-Nε-(9-fluorenylmethoxycarbonyl)-L-lysine]	1900
Nc1ccc(S(=O)(=O)NCCC[C@H](NC(=O)OCC2c3ccccc3-c3ccccc32)C(=O)O)cc1 [Compound 69, Nδ-(4-Aminobenzenesulfonyl)-Nα-(9-fluorenylmethoxycarbonyl)-L-ornithine]	23800
O=C(NCCCC[C@H](NS(=O)(=O)c1ccc(Cl)cc1)C(=O)O)OCC1c2ccccc2-c2ccccc21 [Compound 72, Nα-(4-Chlorobenzenesulfonyl)-Nε-(9-fluorenylmethoxycarbonyl)-L-lysine]	2380
O=C(NCCC[C@H](NC(=O)OCC1c2ccccc2-c2ccccc21)C(=O)O)OCC1c2ccccc2-c2ccccc21 [Compound 73, Nα,Nδ-di-(9-Fluorenylmethoxycarbonyl)-L-ornithine]	1300
Cc1ccc(S(=O)(=O)N(CC(C)C)[C@@H](CCCCNC(=O)OCc2ccccc2)C(=O)OCc2ccccc2)cc1 [Compound 75, Nα-isobutyl-Nα-(4-methylbenzenesulfonyl)-Nε-benzyloxycarbonyl-L-lysine Benzyl Ester]	> 1250
CC(C)CN(C(CCCCNC(=O)OCc1ccccc1)C(=O)OCc1ccccc1)S(=O)(=O)C=Cc1ccccc1 (stereo not shown) [Compound 76]	> 1250
CC(C)CN([C@@H](CCCCNC(=O)OCc1ccccc1)C(=O)OCc1ccccc1)S(=O)(=O)c1ccc([N+](=O)[O-])cc1 [Compound 78, Nα-Isobutyl-Nα-(4-nitrobenzenesulfonyl)-Nε-benzyloxycarbonyl-L-lysine Benzyl Ester]	> 1250
CCC(CC)CN([C@@H](CCCCNC(=O)OCc1ccccc1)C(=O)OCc1ccccc1)S(=O)(=O)c1ccc(C)cc1 [Compound 80]	> 1250
Cc1ccc(S(=O)(=O)N(CC(C)C)C(CCCCNC(=O)C2c3ccccc3-c3ccccc32)C(=O)O)cc1 (stereo not shown) [Compound 83]	105
Cc1ccc(S(=O)(=O)N(CC(C)C)C(CCCCNC(=O)CC2c3ccccc3-c3ccccc32)C(=O)O)cc1 (stereo not shown) [Compound 84]	89.7
Cc1ccc(S(=O)(=O)N(CC(C)C)[C@@H](CCCCNC(=O)C2c3ccccc3Oc3ccccc32)C(=O)O)cc1 [Compound 85]	14.5
